Source: PMC8063965 (Journal of medicinal chemistry, 2021)

Legend:
[1] = target: T1, full-length hHDAC6 (Homo sapiens, UniProt Q9UBN7); assay: EMSA activity-based inhibition assay, HDAC6; type: biochemical; details: for fold improvement of potency on moving the fluorine substituent: ortho- and meta-fluoro versus parent analog, selectivity was lost
T1 sequence (Q9UBN7 1-1215): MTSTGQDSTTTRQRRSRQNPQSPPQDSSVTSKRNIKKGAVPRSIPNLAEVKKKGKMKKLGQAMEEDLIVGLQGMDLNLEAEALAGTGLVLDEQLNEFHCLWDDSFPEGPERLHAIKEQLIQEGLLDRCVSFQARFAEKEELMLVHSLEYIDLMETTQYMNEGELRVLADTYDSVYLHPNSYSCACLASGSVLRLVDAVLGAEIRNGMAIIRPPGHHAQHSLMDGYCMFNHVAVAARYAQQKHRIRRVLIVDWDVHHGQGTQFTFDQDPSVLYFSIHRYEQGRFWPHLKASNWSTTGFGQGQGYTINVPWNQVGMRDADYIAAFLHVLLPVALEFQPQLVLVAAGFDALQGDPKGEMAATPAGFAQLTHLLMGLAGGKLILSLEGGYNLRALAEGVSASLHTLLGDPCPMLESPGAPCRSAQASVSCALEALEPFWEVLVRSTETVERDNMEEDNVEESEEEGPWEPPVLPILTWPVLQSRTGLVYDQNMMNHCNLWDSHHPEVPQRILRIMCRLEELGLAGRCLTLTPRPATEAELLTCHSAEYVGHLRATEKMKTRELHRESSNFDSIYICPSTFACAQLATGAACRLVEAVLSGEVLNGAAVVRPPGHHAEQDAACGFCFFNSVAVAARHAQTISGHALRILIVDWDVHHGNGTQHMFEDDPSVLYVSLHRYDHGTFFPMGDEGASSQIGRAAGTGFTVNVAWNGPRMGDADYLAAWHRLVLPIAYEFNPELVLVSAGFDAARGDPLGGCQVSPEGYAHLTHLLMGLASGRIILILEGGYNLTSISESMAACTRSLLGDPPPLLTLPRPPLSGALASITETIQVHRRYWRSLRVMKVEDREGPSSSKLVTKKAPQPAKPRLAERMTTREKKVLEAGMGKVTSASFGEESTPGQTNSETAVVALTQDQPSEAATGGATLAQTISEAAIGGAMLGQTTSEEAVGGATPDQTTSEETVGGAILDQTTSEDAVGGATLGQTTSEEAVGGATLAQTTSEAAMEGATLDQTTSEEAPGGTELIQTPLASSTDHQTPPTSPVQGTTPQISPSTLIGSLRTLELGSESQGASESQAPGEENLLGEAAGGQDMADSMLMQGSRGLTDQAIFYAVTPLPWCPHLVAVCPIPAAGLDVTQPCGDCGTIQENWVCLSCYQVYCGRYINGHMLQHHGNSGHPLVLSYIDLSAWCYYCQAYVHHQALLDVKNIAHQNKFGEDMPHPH

[2] = tested on: Ac-α-tubulin in MV4–11 cells; assay: Western blot of Ac-α-tubulin; type: cell-based
[3] = Pooled human whole blood stability assay; type: in vitro ADME; details: triplicate
[4] = target: T2, HDAC6 (Homo sapiens, UniProt Q9UBN7); assay: Intact mass spectrometry analysis of the enzyme; details: intact mass spectrometry on treatment with compound
T2 sequence (Q9UBN7 1-1215): T1 sequence (Q9UBN7 1-1215)

[5] = Mouse plasma stability assay; type: in vitro ADME; details: triplicate
[6] = tested on: Ac-histone H3 in MV4–11 cells; assay: Western blot of Ac-histones; type: cell-based
[7] = target: T3, drHDAC6 CD2 (Danio rerio, UniProt F8W4B7); assay: Fluorescence polarization; type: binding, Danio rerio (zebrafish); details: orthogonal fluorescence polarization assay
T3 sequence (F8W4B7 440-798 limits assumed): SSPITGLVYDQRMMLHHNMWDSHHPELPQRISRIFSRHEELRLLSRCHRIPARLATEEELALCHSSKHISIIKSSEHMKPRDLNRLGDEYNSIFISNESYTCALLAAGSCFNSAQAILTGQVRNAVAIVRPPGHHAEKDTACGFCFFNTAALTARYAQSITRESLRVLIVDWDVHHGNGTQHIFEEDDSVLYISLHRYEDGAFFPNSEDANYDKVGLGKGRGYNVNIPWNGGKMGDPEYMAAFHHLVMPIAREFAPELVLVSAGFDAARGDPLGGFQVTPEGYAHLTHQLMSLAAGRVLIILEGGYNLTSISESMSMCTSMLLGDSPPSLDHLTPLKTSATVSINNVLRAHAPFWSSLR

[8] = tested on: 'normal' MRC9 lung fibroblasts; assay: Cytotoxicity assay; type: cell-based; details: 72 h
[9] = tested on: MV4–11 cells; assay: FACS apoptosis detection assay; type: cell-based
[10] = tested on: six leukemic cancer cells; assay: Cytotoxicity assay; type: cell-based; details: 72 h, read-out: average anti-proliferative IC50
[11] = tested on: Ac-histone in HeLa cells; assay: Immunofluorescence assay, Ac-histone; type: cell-based; details: 0.1 μM or 2 μM, 6 h
[12] = tested on: MV4–11 cells; assay: Detection of ROS generation; type: cell-based; details: MV4–11, 10 μM, up to 4 h, versus DMSO control
[13] = tested on: Ac-α-tubulin in HeLa cells; assay: Immunofluorescence assay, Ac-α-tubulin; type: cell-based; details: 6 h

O=C(NO)c1ccc(CN(Cc2ccccn2)S(=O)(=O)c2cc(F)c(F)c(F)c2F)cc1 [Compound 14]
fold more potent against HDAC6 compared to 9 ([1]; relative to 9): 2 fold

O=C(NO)c1ccc(CN(Cc2cccnc2)S(=O)(=O)c2cc(F)c(F)c(F)c2F)cc1 [TO-317]
Ac-α-tubulin levels at 0.25 μM ([2]; MV4–11 cells, 0.25 μM, 6 hours): significant increase
lowest concentration giving preferential increase in acetylated α-tubulin ([2]; dose-dependent, cells not given): 50 nM
Remaining percentage concentration, 0 min [3]: 100%
covalent modification of the enzyme [4]: no covalent modification of the enzyme was observed
Remaining percentage concentration, 0 min [5]: 100%
Ac-histones accumulation ([6]; MV4–11 cells, at 0.25 μM, 6 hours): minimal accumulation
concentration required to observe distinct acetylation of H3 histone ([6]; cells not given): ~ 0.75 μM
potency of interaction with drHDAC6 CD2 (FP) [7]: 4 nM
activity in normal cells [8]: minimal activity
early and late apoptotic cell populations, combined ([9]; MV4–11, 0.25 μM): 11%
early and late apoptotic cell populations, combined ([9]; MV4–11, 2 μM): 65%
early and late apoptotic cell populations, combined ([9]; MV4–11, 4 μM): 73%
necrosis (UL sub-population) ([9]; MV4–11, across the range of concentrations tested, versus DMSO control): does not show statistically different changes to necrosis
IC50 [10]: < 2000 nM
levels of Ac-histone (green stain) [11]: do not change significantly
ROS generation [12]: markedly increased levels of ROS after 2 h incubation
accumulation of Ac-α-tubulin (red stain) at 2 μM [13]: significant accumulation

O=C(NO)c1ccc(CN(Cc2cccc(F)c2)S(=O)(=O)c2cc(F)c(F)c(F)c2F)cc1 [Compound 12]
fold improvement of potency on moving the fluorine substituent [1]: 2 fold

O=C(NO)c1ccc(CN(Cc2ccncc2)S(=O)(=O)c2c(F)c(F)c(F)c(F)c2F)cc1 [Compound 8]
HDAC6 selectivity ([1]; against 4 representative HDAC homologs (Table 1)): > 71 fold

O=C(NO)c1ccc(CN(Cc2ccccc2F)S(=O)(=O)c2cc(F)c(F)c(F)c2F)cc1 [Compound 13]
fold improvement of potency on moving the fluorine substituent [1]: 2 fold

O=C(CCCCCCNC(=O)c1cnc(N(c2ccccc2)c2ccccc2Cl)nc1)NO [Citarinostat, reference compound]
accumulation of Ac-α-tubulin (red stain) at 2 μM [13]: slightly less prominent
